Source: patent publication US20250263370A1 (Tay Therapeutics Limited, priority 2022, published 2025)
Converted amounts (≈) assume the structure as drawn. “And” between values parts separate entries of the source, which are not always exact repeats. Equal values may be shown once.

What was measured:
[1] = target: BRD4 BD2 (Homo sapiens (Human), UniProt O60885); test: NanoBRET bromodomain assay, NanoLuc-BRD4-BD2 fusion in HEK293 cells;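 note: tracer displacement BRET read in transfected cells after 2 h compound exposure at 37 °C, signal in milliBRET units corrected against no-tracer background wells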
Description: HEK293 cells were transfected using NanoLuc-BRD4-BD1 or NanoLuc-BRD4-BD2 fusion vectors and incubated at 37° C. in an atmosphere of 5% CO2 for 20-24 hours. The transfected cells were then dispensed into 96-well plates using 90 μl cell suspension per well containing 2×10^5 cells/mL in Opti-MEM and 1× final concentration of tracer. 90 μL per well of cell suspension without tracer was also dispensed into at least 3 wells as “No tracer control samples” for background correction. Serially diluted test compounds were prepared at 1000× concentration in DMSO and further diluted to 10× concentration in Opti-MEM. […] Plates were then incubated at 37° C. +5% 002 incubator for 2 hours. […] Donor emission (450 nm) and acceptor emission (610 nm) were measured using PHERAstar (BMG LabTech). For data analysis, the raw BRET ratio was generated and converted to milliBRET units with background correction using the formula: [(Acceptorsample/Donorsample−(Acceptorno tracer control/Donorno tracer control)]×1000. The mBU data was plotted as a function of compound concentration and IC50s for BRET assay were determined by nonlinear regression analysis of concentration response curves using the Collaborative Drug Discovery Vault software. The fold-selectivity was calculated by dividing the IC50 for BRD4 BD1 by the IC50 for BRD4 BD2.

[2] = Thermodynamic solubility in FaSSIF pH 6.5 buffer; assay type: physicochemical; conditions: FaSSIF buffer, 25 °C, pH 6.5, fassif, thermodynamic from solid, Method 1 (UV-vis, 25° C., 24 hrs)
[3] = system: Col1a1, TGF-b1, MCP-1, IL-1b, IL-6, IL-17, TNF-a, and Timp1; test: Tissue biomarker mRNA by RT-PCR in ligated kidney of UUO rats; assay type: in vivo, rat
Text: Serum for blood biochemistry analysis was collected into centrifuge tubes without coagulant four hours after final dosing. Blood plasma samples from group 3 was collected into tubes with K2EDTA four hours after final dosing. At the conclusion of the study (end of the 14-day period), animals were euthanized. Kidney tissue was collected four hours after final dosing. Ligated side kidney was divided into three copies ⅓ fix into 10% formalin for H&E analysis, ⅓ into RNA for PCR analysis of tissue biomarkers Col1a1, TGF-b1, MCP-1, IL-1b, IL-6, IL-17, TNF-a, and Timp1, and ⅓ for hydroxyproline assay analyzed by ELISA. RNA was extracted from tissue using the RNeasy mini kit (Qiagen). RNA concentration was measured using a NanoDrop One Spectrophotometer (ThermoFisher) and converted to cDNA using a High-Capacity RNA-to-cDNA kit (Invitrogen). RT-PCR was performed to measure levels of mRNA of different targets using TaqMan® Gene Expression Master Mix and TaqMan® probe/primer sets on a QuantStudio 6, Real-Time PCR System (ThermoFisher). Fold change in target gene expression was determined using the ΔΔCt method.

**Q.** Which “selectivity for BDII relative to GSK620” value [1] does the source give for CNC(=O)c1[nH]c(C(=O)NC2CCC2)cc1O[C@@H](C)c1ccccc1 (stereo in doubt) [Example 101, N^5-cyclobutyl-N^2-methyl-3-(1-phenylethoxy)-1H-pyrrole-2,5-dicarboxamide] here?
**A.** more selective than GSK620 for BDII by greater than about two orders of magnitude

**Q.** And the IC50 ([1]; BRD4 BD2 (IC50), NanoBRET, HEK293 cells, top concentration 10 μM)?
**A.** < 50 nM

**Q.** And the Fold selectivity ([1]; IC50 for BRD4 BD1 divided by IC50 for BRD4 BD2, qualitative if an IC50 is at the upper limit)?
**A.** XXX (Fold >200)

**Q.** And the solubility thermodynamic at 24 h [2]?
**A.** 193 µM (≈ 65.9 µg/mL)

**Q.** What about the “Col1a1 tissue RNA level relative to UUO + vehicle” value ([3]; 30 mg/kg BID, kidney) of the same compound?
**A.** reduced levels

**Q.** What about the “IL-1b tissue RNA level relative to UUO + vehicle” value ([3]; 30 mg/kg BID, kidney) of the same compound?
**A.** reduced levels

**Q.** What about the “IL-6 tissue RNA level relative to UUO + vehicle” value ([3]; 30 mg/kg BID, kidney) of the same compound?
**A.** reduced levels

**Q.** And the “MCP-1 tissue RNA level relative to UUO + vehicle” value ([3]; 30 mg/kg BID, kidney)?
**A.** reduced levels

**Q.** And the “TGF-b1 tissue RNA level relative to UUO + vehicle” value ([3]; 30 mg/kg BID, kidney)?
**A.** reduced levels

**Q.** What about the “Timp1 tissue RNA level relative to UUO + vehicle” value ([3]; 30 mg/kg BID, kidney) of the same compound?
**A.** reduced levels

**Q.** And the “expression of IL-17 relative to UUO + vehicle” value ([3]; 30 mg/kg BID, kidney)?
**A.** limited effect

**Q.** What about the “expression of TNF-α relative to UUO + vehicle” value ([3]; 30 mg/kg BID, kidney) of the same compound?
**A.** limited effect

**Q.** What about the “Col1a1 RNA level, Normalized Fold Change” value ([3]; 30 mg/kg, individual animals) of the same compound?
**A.** 0.67 and 0.33 and 0.21 and 0.55 and 0.28 and 0.41 and 0.86 and 0.69

**Q.** What about the “IL-1b RNA level, Normalized Fold Change” value ([3]; 30 mg/kg, individual animals) of the same compound?
**A.** 0.43 and 0.18 and 0.29 and 0.69 and 0.55 and 0.27 and 0.56 and 0.67

**Q.** What about the “IL-6 RNA level, Normalized Fold Change” value ([3]; 30 mg/kg, individual animals) of the same compound?
**A.** 0.06 and 0.05 and 0.03 and 0.33 and 0.12 (2×) and 0.26 and 0.07

**Q.** What about the “IL-17 RNA level, Normalized Fold Change” value ([3]; 30 mg/kg, individual animals) of the same compound?
**A.** 0.79 and 0.22 and 0.24 and 2.09 and 1.81 and 0.54 and 0.70 and 0.94

**Q.** And the “MCP-1 RNA level, Normalized Fold Change” value ([3]; 30 mg/kg, individual animals)?
**A.** 0.34 and 0.26 and 0.32 and 0.53 and 0.42 and 0.27 and 0.68 and 0.61

**Q.** And the “TGF-b1 RNA level, Normalized Fold Change” value ([3]; 30 mg/kg, individual animals)?
**A.** 0.63 and 0.44 and 0.35 and 0.81 and 0.52 and 0.50 and 0.90 and 0.85

**Q.** What about the “TNF-a RNA level, Normalized Fold Change” value ([3]; 30 mg/kg, individual animals) of the same compound?
**A.** 0.90 and 0.48 and 0.32 and 1.53 and 1.00 and 0.69 and 0.94 and 1.55

**Q.** And the “Timp1 RNA level, Normalized Fold Change” value ([3]; 30 mg/kg, individual animals)?
**A.** 0.65 and 0.41 and 0.44 and 0.71 and 0.54 and 0.56 and 0.94 and 0.97

**Q.** And the “Col1a1 RNA level, Normalized Fold Change (Mean + SEM)” value ([3]; group mean, N 8)?
**A.** 0.50

**Q.** What about the “IL-1b RNA level, Normalized Fold Change (Mean + SEM)” value ([3]; group mean, N 8) of the same compound?
**A.** 0.46

**Q.** What about the “IL-6 RNA level, Normalized Fold Change (Mean + SEM)” value ([3]; group mean, N 8) of the same compound?
**A.** 0.13

**Q.** And the “IL-17 RNA level, Normalized Fold Change (Mean + SEM)” value ([3]; group mean, N 8)?
**A.** 0.92

**Q.** And the “MCP-1 RNA level, Normalized Fold Change (Mean + SEM)” value ([3]; group mean, N 8)?
**A.** 0.43

**Q.** And the “TGF-b1 RNA level, Normalized Fold Change (Mean + SEM)” value ([3]; group mean, N 8)?
**A.** 0.63

**Q.** What about the “TNF-a RNA level, Normalized Fold Change (Mean + SEM)” value ([3]; group mean, N 8) of the same compound?
**A.** 0.93

**Q.** What about the “Timp1 RNA level, Normalized Fold Change (Mean + SEM)” value ([3]; group mean, N 8) of the same compound?
**A.** 0.65
